Measured values: patent US12629374B2, “Antimalarial agents” (Merck Sharp & Dohme LLC, priority 2020, dated 2026)
Where two headings read alike, the source gives them in different places.

Test system: ring stage parasites
Assay: Parasite growth potency assay, 72 hours, LDH readout
Assay type: cell-based
Conditions: parasite growth measured by LDH assay after 72 hours at 37° C., 0.7% rings, 2% haematocrit, read-out: EC50
In short: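 Parasite growth was quantified by LDH assay after a −80 °C freeze-thaw. Before that, compound was incubated for 72 h at 37 °C under humidified gas with ring-stage cultures adjusted to 0.7% parasitemia and 2% haematocrit in serum- and albumax-supplemented RPMI-Hepes.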

SMILES | EC50 (72 h) | other results
CCC1(CC)CC(=O)N(C(c2cncc(C(=O)N[C@H]3CC(C)(C)Oc4ccccc43)c2)c2cncs2)C(=N)N1 (stereo partly drawn) [Example 105B, [1-[[5-[[(4S)-2,2-dimethylchroman-4-yl]carbamoyl]pyridin-1-ium-3-yl]-thiazol-5-yl-methyl]-4,4-diethyl-6-oxo-hexahydropyrimidin-2-ylidene]ammonium; 2,2,2-trifluoroacetate] |  | EC50 (trifluoroacetate): 0.6 nM
CCC1(CC)CC(=O)N([C@H](c2cncc(F)c2)c2cccc(C(=O)N[C@H]3CCOc4ccccc43)c2)C(=N)N1 [Example 106A, [1-[[3-[[(4S)-chroman-4-yl]carbamoyl]phenyl]-(5-fluoropyridin-1-ium-3-yl)methyl]-4,4-diethyl-6-oxo-hexahydropyrimidin-2-ylidene]ammonium; 2,2,2-trifluoroacetate] | 0.5 nM | 
CCC1(CC)CC(=O)N([C@@H](c2cncc(F)c2)c2cccc(C(=O)N[C@H]3CCOc4ccccc43)c2)C(=N)N1 [Example 106B, [1-[[3-[[(4S)-chroman-4-yl]carbamoyl]phenyl]-(5-fluoropyridin-1-ium-3-yl)methyl]-4,4-diethyl-6-oxo-hexahydropyrimidin-2-ylidene]ammonium; 2,2,2-trifluoroacetate] | 3.1 nM | 
CCC1(CC)CC(=O)N([C@H](CCC#N)c2cccc(C(=O)N[C@H]3CC(C)(C)Oc4ccccc43)c2)C(=N)N1 [Example 107, [1-[3-cyano-1-[3-[[(4S)-2,2-dimethylchroman-4-yl]carbamoyl]phenyl]propyl]-4,4-diethyl-6-oxo-hexahydropyrimidin-2-ylidene]ammonium; 2,2,2-trifluoroacetate] | 0.2 nM | 
C#CCC[C@H](c1cccc(C(=O)N[C@H]2CC(C)(C)Oc3ccccc32)c1)N1C(=N)N[C@](C)(C(C)C)CC1=O [Example 108A, [(4S)-1-[1-[3-[[(4S)-2,2-dimethylchroman-4-yl]carbamoyl]phenyl]pent-4-ynyl]-4-isopropyl-4-methyl-6-oxo-hexahydropyrimidin-2-ylidene]ammonium; 2,2,2-trifluoroacetate] | 0.4 nM | 
C#CCC[C@@H](c1cccc(C(=O)N[C@H]2CC(C)(C)Oc3ccccc32)c1)N1C(=N)N[C@](C)(C(C)C)CC1=O [Example 108B, [(4S)-1-[1-[3-[[(4S)-2,2-dimethylchroman-4-yl]carbamoyl]phenyl]pent-4-ynyl]-4-isopropyl-4-methyl-6-oxo-hexahydropyrimidin-2-ylidene]ammonium; 2,2,2-trifluoroacetate] | 23.6 nM | 
CCC1(CC)CC(=O)N([C@H](c2cccnc2)c2cccc(C(=O)N[C@@H]3c4ccccc4C[C@H]3O)c2)C(=N)N1 [Example 109A, [4,4-diethyl-1-[[3-[[(1R,2R)-2-hydroxyindan-1-yl]carbamoyl]phenyl]-pyridin-1-ium-3-yl-methyl]-6-oxo-hexahydropyrimidin-2-ylidene]ammonium; 2,2,2-trifluoroacetate] | 1.6 nM | 
CCC1(CC)CC(=O)N([C@@H](c2cccnc2)c2cccc(C(=O)N[C@@H]3c4ccccc4C[C@H]3O)c2)C(=N)N1 [Example 109B, [4,4-diethyl-1-[[3-[[(1R,2R)-2-hydroxyindan-1-yl]carbamoyl]phenyl]-pyridin-1-ium-3-yl-methyl]-6-oxo-hexahydropyrimidin-2-ylidene]ammonium; 2,2,2-trifluoroacetate] | 22.9 nM | 
CCC1(CC)CC(=O)N(C(c2cncnc2)c2cccc(C(=O)N[C@@H]3c4ccccc4C[C@H]3O)c2)C(=N)N1 (stereo partly drawn) [Example 110A, 3-[(4,4,-diethyl-2-imino-6-oxo-hexahydropyrimidin-1-yl)-pyrimidin-5-yl-methyl]-N-[(1R,2R)-2-hydroxyindan-1-yl]benzamide] |  | EC50: 4 nM
CCC1(CC)CC(=O)N([C@H](c2cncnc2)c2cccc(C(=O)N[C@@H]3c4ccccc4C[C@H]3O)c2)C(=N)N1 [Example 110B, 3-[(4,4-diethyl-2-imino-6-oxo-hexahydropyrimidin-1-yl)-pyrimidin-5-yl-methyl]-N-[(1R,2R)-2-hydroxyindan-1-yl]benzamide] | 8.3 nM | 
CC#CCC[C@H](c1cncc(C(=O)N[C@H]2CC(C)(C)Oc3ccccc32)c1)N1C(=N)NC(CC)(CC)CC1=O [Example 111, [1-[1-[5-[[(4S)-2,2-dimethylchroman-4-yl]carbamoyl]pyridin-1-ium-3-yl]hex-4-ynyl]-4,4-diethyl-6-oxo-hexahydropyrimidin-2-ylidene]ammonium; 2,2,2-trifluoroacetate] | 0.4 nM | 
CCC1(CC)CC(=O)N([C@H](COCCOC)c2cccc(C(=O)N[C@H]3CC(C)(C)Oc4ccccc43)c2)C(=N)N1 [Example 112A, [1-[1-[3-[[(4S)-2,2-dimethylchroman-4-6-oxo-hexahydropyrimidin-2-ylidene]ammonium; 2,2,2-trifluoroacetate] | 0.3 nM | 
CCC1(CC)CC(=O)N(Cc2cccc(C(=O)NC3(C)CCOc4ccccc43)c2)C(=N)N1 (stereo not shown) [Example 113, 3-[(4,4-diethyl-2-imino-6-oxo-hexahydropyrimidin-1-yl)methyl]-N-(4-methylchroman-4-yl)benzamide] | 96.1 nM | 
C#CCC[C@H](c1cncc(C(=O)N[C@H]2CC(C)(C)Oc3ccccc32)c1)N1C(=N)N[C@](C)(C(C)C)CC1=O [Example 114A, [(4S)-1-[1-[5-[[(4S)-2,2-dimethylchroman-4-yl]carbamoyl]pyridin-1-ium-3-yl]pent-4-ynyl]-4-isopropyl-4-methyl-6-oxo-hexahydropyrimidin-2-ylidene]ammonium; 2,2,2-trifluoroacetate] | 0.3 nM | 
C#CCC[C@@H](c1cncc(C(=O)N[C@H]2CC(C)(C)Oc3ccccc32)c1)N1C(=N)N[C@](C)(C(C)C)CC1=O [Example 114B, [(4S)-1-[1-[5-[[(4S)-2,2-dimethylchroman-4-yl]carbamoyl]pyridin-1-ium-3-yl]pent-4-ynyl]-4-isopropyl-4-methyl-6-oxo-hexahydropyrimidin-2-ylidene]ammonium; 2,2,2-trifluoroacetate] | 18.4 nM | 
CCC1(CC)CC(=O)N([C@H](c2ccc(S(C)(=O)=O)cc2)c2cccc(C(=O)N[C@H]3CC(C)(C)Oc4ccccc43)c2)C(=N)N1 [Example 115A, [1-[[3-[[(4S)-2,2-dimethylchroman-4-yl]carbamoyl]phenyl]-(4-methylsulfonylphenyl)methyl]-4,4-diethyl-6-oxo-hexahydropyrimidin-2-ylidene]ammonium; 2,2,2-trifluoroacetate] | 1 nM | 
CCC1(CC)CC(=O)N([C@@H](c2ccc(S(C)(=O)=O)cc2)c2cccc(C(=O)N[C@H]3CC(C)(C)Oc4ccccc43)c2)C(=N)N1 [Example 115B, [1-[[3-[[(4S)-2,2-dimethylchroman-4-yl]carbamoyl]phenyl]-(4-methylsulfonylphenyl)methyl]-4,4-diethyl-6-oxo-hexahydropyrimidin-2-ylidene]ammonium; 2,2,2-trifluoroacetate] | 4.4 nM | 
CCC1(CC)CC(=O)N([C@H](c2ccc(S(C)(=O)=O)cc2)c2cccc(C(=O)N[C@@H]3c4ccccc4C[C@H]3O)c2)C(=N)N1 [Example 116, [4,4-diethyl-1-[[3-[[(1R,2R)-2-hydroxyindan-1-yl]carbamoyl]phenyl]-(4-methylsulfonylphenyl)methyl]-6-oxo-hexahydropyrimidin-2-ylidene]ammonium; chloride] | 6.8 nM | 
CCC12CCCCCCCC3CC(NC(=O)c4cccc(c4)CN(C(=N)N1)C(=O)C2)c1ccccc1O3 (stereo not shown) [Example 118, (26-ethyl-8,29-dioxo-17-oxa-1,9,27-triazapentacyclo[24.2.2.13,7.110,18. 011,16]dotriaconta-3,5,7(32),11(16),12,14-hexaen-28-ylidene)ammonium; 2,2,2-trifluoroacetate] | 56.5 nM | 
CCC[C@H](c1cccc(C(=O)N[C@@H]2c3ccccc3OC(C)(C)[C@H]2O)c1)N1C(=N)NC(CC)(CC)CC1=O [Example 119A, [4,4-diethyl-1-[(1R)-1-[3-[(3-hydroxy-2,2-dimethyl-chroman-4-yl)carbamoyl]phenyl]butyl]-6-oxo-hexahydropyrimidin-2-ylidene]ammonium; 2,2,2-trifluoroacetate] | 0.5 nM | 
CCC[C@H](c1cccc(C(=O)N[C@H]2c3ccccc3OC(C)(C)[C@@H]2O)c1)N1C(=N)NC(CC)(CC)CC1=O [Example 119B, [4,4-diethyl-1-[(1R)-1-[3-[(3-hydroxy-2,2-dimethyl-chroman-4-yl)carbamoyl]phenyl]butyl]-6-oxo-hexahydropyrimidin-2-ylidene]ammonium; 2,2,2-trifluoroacetate] | 34 nM | 
CCC[C@H](c1cccc(C(=O)N[C@@H]2c3ccccc3CC2(C)O)c1)N1C(=N)NC(CC)(CC)CC1=O (stereo partly drawn) [Example 122A, 3-[(1R)-1-(4,4-diethyl-2-imino-6-oxo-hexahydropyrimidin-1-yl)butyl]-N-(2-hydroxy-2-methyl-indan-1-yl)benzamide] | 1.2 nM | 
CCC[C@H](c1cccc(C(=O)N[C@@H]2c3ccccc3CC2(C)O)c1)N1C(=N)NC(CC)(CC)CC1=O (stereo partly drawn) [Example 122D, 3-[(1R)-1-(4,4-diethyl-2-imino-6-oxo-hexahydropyrimidin-1-yl)butyl]-N-(2-hydroxy-2-methyl-indan-1-yl)benzamide] |  | EC50: 0.6 nM
CCC1(CC)CC(=O)N([C@@H](c2cccc(C(=O)N[C@H]3CCOc4ccccc43)c2)c2cccc(S(C)(=O)=O)c2)C(=N)N1 [Example 123A, [1-[[3-[[(4S)-chroman-4-yl]carbamoyl]phenyl]-(3-methylsulfonylphenyl)methyl]-4,4-diethyl-6-oxo-hexahydropyrimidin-2-ylidene]ammonium; 2,2,2-trifluoroacetate] | 1.9 nM | 
CCC1(CC)CC(=O)N([C@H](c2cccc(C(=O)N[C@H]3CCOc4ccccc43)c2)c2cccc(S(C)(=O)=O)c2)C(=N)N1 [Example 123B, [1-[[3-[[(4S)-chroman-4-yl]carbamoyl]phenyl]-(3-methylsulfonylphenyl)methyl]-4,4-diethyl-6-oxo-hexahydropyrimidin-2-ylidene]ammonium; 2,2,2-trifluoroacetate] | 9.3 nM | 
